Data: patent US20230123585A1, “COMPOSITIONS AND METHODS FOR TREATING OR PREVENTING CANCER USING DEUBIQUITINASE INHIBITORS” (The University of Chicago, priority 2020, published 2023)

Columns and labels:
[1] = tested on: mRNA m^6A in A375 cells; assay: LC-MS/MS quantification of the m^6A/A ratio in mRNA of A375 cells; assay type: cell-based, human; conditions: A375 melanoma cells, 48 h, 10 μM PD0325901 or 0.1 μM trametinib
Procedure: FIGS. 6A-6H: Phosphorylation of the m^6A Methyltransferase Complex May Affect Tumorigenesis. (A) Lysates of A375 stable transfectants harvested at different time points after treatment with cycloheximide (CHX) 10 μg/ml were analyzed by immunoblot. (B) LC-MS/MS quantification of the m^6A/A ratio in mRNA of A375 stable transfectants. (C) After 8 h treatment with 10 μM PD0325901 or 0.1 μM tramentib, cell lysates from A375 cells were analyzed by immunoblot. (D) LC-MS/MS quantification of the m^6A/A ratio in mRNA of A375 cells treated with 10 μM PD0325901 or 0.1 μM tramentib for 48 h. (E) After 8hr treatment with 10 μM EOAI3402143 (EOAI) or 30 μM vialinin A , cell lysates from A375 cells were analyzed by immunoblot. […] (H) LC-MS/MS quantification of the m^6A/A ratio in mRNA of SKBR3 and BT474 cells treated with 1 μM tucatinib and 1 μM lapatinib for 48 h. […]
LC-MS/MS quantification of m^6A in poly(A) RNA. mRNA was extracted from the total RNA using 2 rounds of the Dynabeads mRNA purification kit. […] The nucleosides were quantified by using the nucleoside-to-base ion mass transitions of 282 to 150 (m^6A) and 268 to 136 (A). Quantification was carried out by comparison with a standard curve obtained from pure nucleoside. The ratio of m^6A to A was calculated based on the calibrated concentrations (Liu et al., 2018).

[2] = tested on: p-METTL3 (S43); assay: p-METTL3 (S43) in A375 cells, IP with METTL3 antibody followed by immunoblot; assay type: cell-based, human; conditions: 1 h, 1 μM dabrafenib, 1 μM PLX-4720, 10 μM PD0325901, 0.1 μM trametinib
Description: FIGS. 10A-10G: ERK Interacts and Phosphorylates METTL3 and WTAP. (A-C) Mass spectrometry detected S43, S50 and S525 phosphorylation in METTL3 in 293T cells co-transfected with B-RAF V600E. (D) Characterization of anti-p-METTL3 (S43) antibodies of 293T cells transfected as indicated with MEK S218D/S222D, HER2 V659E, B-RAF V600E and WT or non-phosphorylatable alanine mutant (3A) METTL3. (E) The METTL3 S43 phosphorylation was identified by in vitro kinase assays, in which purified METTL3-METTL14 were incubated with activated ERK2. (F) A375 cells were treated with 1 μM dabrafenib, 1 μM PLX-4720, 10 μM PD0325901, 0.1 μM tramentib for 1 h. Cell lysates were subjected to IP with METTL3 antibody followed by immunoblot. (G) Phos-tag SDS-PAGE showing the phosphorylation status of WT or non-phosphorylatable alanine mutants of mice WTAP in 293T cells co-transfected with B-RAF. 2A, T298A/S341A.
To investigate METTL3 phosphorylation by ERK inside cells, a polyclonal antibody was generated that targets S43-phosphorylated METTL3. This antibody recognizes S43-phosphorylated METTL3 but not a mutant form of METTL3, METTL3 3A, with all three phosphorylation serine sites replaced with alanine (FIG. 10D). This P-S43 antibody was then used as a tool to monitor METTL3 phosphorylation. […] Furthermore, the p-METTL3 (S43) in A375 cells, a human melanoma cell line with constitutively active ERK due to a B-RAF V600E mutation, was abrogated by treatments with B-RAF inhibitors (dabrafenib and PLX4720) or MEK inhibitors (PD0325901 and trametinib) (FIG. 10F), supporting that S43 phosphorylation on METTL3 is installed through the ERK pathway.
Immunoprecipitation, immunoblotting, and in vitro kinase assay. Immunoprecipitation (IP) and immunoblotting (IB) were performed as previously described (Sun et al., 2016). […] Primary antibodies were detected by HRP-linked secondary antibodies (Cell Signaling) together with SuperSignal West Pico Plus chemiluminescent substrate (Thermo Scientific) and imaged in a FluorChem R system (ProteinSimple).

How did the “overall mRNA m^6A levels (m^6A/A ratio)” value [1] turn out when `O=C(NOC[C@H](O)CO)c1ccc(F)c(F)c1Nc1ccc(I)cc1F` [PD0325901] was run?
Its value is “reduce”.

What about the “p-METTL3 (S43)” value [2] of the same molecule?
Its value is “abrogated”.
